Test system: 186277-243-T-J2-PDC complex spheroid viability
Assay: Anticancer human tumor 186277-243-T-J2-PDC patient-derived colon adenocarcinoma cell line growth inhibition [GQUAD]
Settings: for IC50: curve of first compound; for viability, T/C: stronger effect = lower value
Procedure, shortened: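 Multi-cell-type spheroids of tumor cells with HUVEC and mesenchymal stem cells, treated with drug combinations. Concentrations descend in half-log steps from near clinical Cmax, or from 10 microM where Cmax is unknown; viability read-out.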

[1] = second compound 0.0316 µM, first compound 0.0316 µM
[2] = second compound 0.0316 µM, first compound 0.1 µM
[3] = second compound 0.0316 µM, first compound 0.316 µM
[4] = second compound 0.0316 µM, first compound 1 µM
[5] = second compound 0.0316 µM, first compound 3.16 µM
[6] = second compound 0.0316 µM, first compound 10 µM
[7] = second compound 0.1 µM, first compound 0.0316 µM
[8] = second compound 0.1 µM, first compound 0.1 µM
[9] = second compound 0.1 µM, first compound 0.316 µM
[10] = second compound 0.1 µM, first compound 1 µM
[11] = second compound 0.1 µM, first compound 3.16 µM
[12] = second compound 0.1 µM, first compound 10 µM
[13] = second compound 0.316 µM, first compound 0.0316 µM
[14] = second compound 0.316 µM, first compound 0.1 µM
[15] = second compound 0.316 µM, first compound 0.316 µM
[16] = second compound 0.316 µM, first compound 1 µM
[17] = second compound 0.316 µM, first compound 3.16 µM
[18] = second compound 0.316 µM, first compound 10 µM
[19] = second compound 1 µM, first compound 0.0316 µM
[20] = second compound 1 µM, first compound 0.1 µM
[21] = second compound 1 µM, first compound 0.316 µM
[22] = second compound 1 µM, first compound 1 µM
[23] = second compound 1 µM, first compound 3.16 µM
[24] = second compound 1 µM, first compound 10 µM
[25] = second compound 3.16 µM, first compound 0.0316 µM
[26] = second compound 3.16 µM, first compound 0.1 µM
[27] = second compound 3.16 µM, first compound 0.316 µM
[28] = second compound 3.16 µM, first compound 1 µM
[29] = second compound 3.16 µM, first compound 3.16 µM
[30] = second compound 3.16 µM, first compound 10 µM
[31] = second compound 10 µM, first compound 0.0316 µM
[32] = second compound 10 µM, first compound 0.1 µM
[33] = second compound 10 µM, first compound 0.316 µM
[34] = second compound 10 µM, first compound 1 µM
[35] = second compound 10 µM, first compound 3.16 µM
[36] = second compound 10 µM, first compound 10 µM
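Note: spheroids exposed to drugs for 7 days.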
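Throughout, for viability, T/C: 100% = DMSO vehicle control viability.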

## CC1COCCN1c1cc(C2(S(C)(=N)=O)CC2)nc(-c2ccnc3[nH]ccc23)n1 (stereo not drawn) + Cc1[nH]c2ccc(F)cc2c1-c1nc2c3cccnc3c3ncccc3c2[nH]1
Second compound 0.0316 µM
  IC50: 0.791 µM
Second compound 0.1 µM
  IC50: 0.839 µM
Second compound 0.316 µM
  IC50: 1.21 µM
Second compound 1 µM
  IC50: 1.6 µM
Second compound 3.16 µM
  IC50: 1.14 µM
Second compound 10 µM
  IC50: 1.21 µM
[1]
  viability, T/C: 109%
[2]
  viability, T/C: 104%
[3]
  viability, T/C: 105%
[4]
  viability, T/C: 35.6%
[5]
  viability, T/C: 11.1%
[6]
  viability, T/C: 10.7%
[7]
  viability, T/C: 109%
[8]
  viability, T/C: 88.3%
[9]
  viability, T/C: 87.7%
[10]
  viability, T/C: 42.6%
[11]
  viability, T/C: 13.2%
[12]
  viability, T/C: 4.44%
[13]
  viability, T/C: 87.7%
[14]
  viability, T/C: 89.4%
[15]
  viability, T/C: 117%
[16]
  viability, T/C: 58.1%
[17]
  viability, T/C: 10.9%
[18]
  viability, T/C: 8.17%
[19]
  viability, T/C: 91.1%
[20]
  viability, T/C: 85.8%
[21]
  viability, T/C: 101%
[22]
  viability, T/C: 74.2%
[23]
  viability, T/C: 15%
[24]
  viability, T/C: 8.18%
[25]
  viability, T/C: 102%
[26]
  viability, T/C: 92.4%
[27]
  viability, T/C: 97.5%
[28]
  viability, T/C: 53.5%
[29]
  viability, T/C: 16.3%
[30]
  viability, T/C: 7.22%
[31]
  viability, T/C: 90.1%
[32]
  viability, T/C: 98.2%
[33]
  viability, T/C: 96.9%
[34]
  viability, T/C: 57.2%
[35]
  viability, T/C: 12.8%
[36]
  viability, T/C: 6.82%

## CCCS(=O)(=O)Nc1ccc(F)c(C(=O)c2c[nH]c3ncc(-c4ccc(Cl)cc4)cc23)c1F + Cc1[nH]c2ccc(F)cc2c1-c1nc2c3cccnc3c3ncccc3c2[nH]1
Second compound 0.0316 µM
  IC50: 6.01 µM
Second compound 0.1 µM
  IC50: 6.44 µM
Second compound 0.316 µM
  IC50: 5.92 µM
Second compound 1 µM
  IC50: 6.94 µM
Second compound 3.16 µM
  IC50: 5.65 µM
Second compound 10 µM
  IC50: 5.28 µM
[1]
  viability, T/C: 109%
[2]
  viability, T/C: 105%
[3]
  viability, T/C: 99%
[4]
  viability, T/C: 91%
[5]
  viability, T/C: 86%
[6]
  viability, T/C: 24.1%
[7]
  viability, T/C: 111%
[8]
  viability, T/C: 107%
[9]
  viability, T/C: 101%
[10]
  viability, T/C: 103%
[11]
  viability, T/C: 98.5%
[12]
  viability, T/C: 20%
[13]
  viability, T/C: 111%
[14]
  viability, T/C: 107%
[15]
  viability, T/C: 104%
[16]
  viability, T/C: 119%
[17]
  viability, T/C: 82.7%
[18]
  viability, T/C: 22.7%
[19]
  viability, T/C: 89.6%
[20]
  viability, T/C: 107%
[21]
  viability, T/C: 108%
[22]
  viability, T/C: 115%
[23]
  viability, T/C: 103%
[24]
  viability, T/C: 25.3%
[25]
  viability, T/C: 110%
[26]
  viability, T/C: 113%
[27]
  viability, T/C: 97.9%
[28]
  viability, T/C: 95%
[29]
  viability, T/C: 89.8%
[30]
  viability, T/C: 13.7%
[31]
  viability, T/C: 90.2%
[32]
  viability, T/C: 95.9%
[33]
  viability, T/C: 103%
[34]
  viability, T/C: 98.4%
[35]
  viability, T/C: 82%
[36]
  viability, T/C: 9.98%

## O=c1[nH]cc(F)c(=O)[nH]1 + CN(C)c1ccc(Nc2c3ccc(NC(=O)CCN4CCCC4)cc3nc3cc(NC(=O)CCN4CCCC4)ccc23)cc1
Second compound 0.0316 µM
  IC50: > 10 µM
Second compound 0.1 µM
  IC50: > 10 µM
Second compound 0.316 µM
  IC50: > 10 µM
Second compound 1 µM
  IC50: 7.5 µM
Second compound 3.16 µM
  IC50: 6.32 µM
Second compound 10 µM
  IC50: 7.04 µM
[1]
  viability, T/C: 99%
[2]
  viability, T/C: 97.1%
[3]
  viability, T/C: 89%
[4]
  viability, T/C: 98.8%
[5]
  viability, T/C: 68.8%
[6]
  viability, T/C: 50.8%
[7]
  viability, T/C: 98.9%
[8]
  viability, T/C: 87%
[9]
  viability, T/C: 102%
[10]
  viability, T/C: 102%
[11]
  viability, T/C: 67.5%
[12]
  viability, T/C: 54.2%
[13]
  viability, T/C: 94.2%
[14]
  viability, T/C: 94.5%
[15]
  viability, T/C: 101%
[16]
  viability, T/C: 93.4%
[17]
  viability, T/C: 62.1%
[18]
  viability, T/C: 51.1%
[19]
  viability, T/C: 87.5%
[20]
  viability, T/C: 91.3%
[21]
  viability, T/C: 98.6%
[22]
  viability, T/C: 112%
[23]
  viability, T/C: 64.7%
[24]
  viability, T/C: 45.1%
[25]
  viability, T/C: 97.2%
[26]
  viability, T/C: 104%
[27]
  viability, T/C: 104%
[28]
  viability, T/C: 101%
[29]
  viability, T/C: 66.5%
[30]
  viability, T/C: 39.1%
[31]
  viability, T/C: 90.9%
[32]
  viability, T/C: 98.4%
[33]
  viability, T/C: 98.5%
[34]
  viability, T/C: 102%
[35]
  viability, T/C: 65.3%
[36]
  viability, T/C: 43.3%

## C#Cc1c(F)ccc2cc(O)cc(-c3ncc4c(N5CC6CCC(C5)N6)nc(OCC56CCCN5CC(F)C6)nc4c3F)c12 (stereo not drawn) + Cc1cnc(CNC(=O)c2c(=O)c3ccc(N4CCCN(C)CC4)nc3n3c2sc2ccccc23)cn1
Second compound 0.0316 µM
  IC50: 0.0587 µM
Second compound 0.1 µM
  IC50: < 0.0316 µM
Second compound 0.316 µM
  IC50: < 0.0316 µM
Second compound 1 µM
  IC50: < 0.0316 µM
Second compound 3.16 µM
  IC50: < 0.0316 µM
Second compound 10 µM
  IC50: < 0.0316 µM
[1]
  viability, T/C: 75.4%
[2]
  viability, T/C: 26.8%
[3]
  viability, T/C: 19.9%
[4]
  viability, T/C: 8.12%
[5]
  viability, T/C: 13.9%
[6]
  viability, T/C: 11.4%
[7]
  viability, T/C: 40%
[8]
  viability, T/C: 18.8%
[9]
  viability, T/C: 9.79%
[10]
  viability, T/C: 7.98%
[11]
  viability, T/C: 9.12%
[12]
  viability, T/C: 5.32%
[13]
  viability, T/C: 23.8%
[14]
  viability, T/C: 14.6%
[15]
  viability, T/C: 8.91%
[16]
  viability, T/C: 5.69%
[17]
  viability, T/C: 5.84%
[18]
  viability, T/C: 4.29%
[19]
  viability, T/C: 18.2%
[20]
  viability, T/C: 9.62%
[21]
  viability, T/C: 6.74%
[22]
  viability, T/C: 5.02%
[23]
  viability, T/C: 5.11%
[24]
  viability, T/C: 3.11%
[25]
  viability, T/C: 17.2%
[26]
  viability, T/C: 12.5%
[27]
  viability, T/C: 5.45%
[28]
  viability, T/C: 4.44%
[29]
  viability, T/C: 4.72%
[30]
  viability, T/C: 2.99%
[31]
  viability, T/C: 14.2%
[32]
  viability, T/C: 9.54%
[33]
  viability, T/C: 4.98%
[34]
  viability, T/C: 0.27%
[35]
  viability, T/C: 2.03%
[36]
  viability, T/C: 0.19%
